Measurements taken from the NIST ThermoML archive (doi:10.1016/j.jct.2006.10.017).

What was measured:
[1] = refractive index (Na D-line) (dimensionless); xn = mol fraction of the nth substance listed; details: 101 kPa, Liquid
[2] = xn = mol fraction of the nth substance listed; details: 101 kPa, Liquid

CCCCn1cc[n+](C)c1.COS(=O)(=O)[O-] [1-butyl-3-methylimidazolium methyl sulfate] + CCO
Details | mass density, 293.15 K [kg/m3] | mass density, 298.15 K [kg/m3] | mass density, 303.15 K [kg/m3] | refractive index, 293.15 K | refractive index, 298.15 K | refractive index, 303.15 K | speed of sound, 293.15 K [m/s] | speed of sound, 298.15 K [m/s] | speed of sound, 303.15 K [m/s]
[1], x1 = 0.0501 | – | – | – | 1.38149 | 1.3797 | 1.37885 | – | – | –
[1], x1 = 0.1015 | – | – | – | 1.39827 | 1.39667 | 1.39541 | – | – | –
[1], x1 = 0.1961 | – | – | – | 1.42043 | 1.41884 | 1.41656 | – | – | –
[1], x1 = 0.299 | – | – | – | 1.43625 | 1.43478 | 1.43335 | – | – | –
[1], x1 = 0.3914 | – | – | – | 1.44713 | 1.4456 | 1.44408 | – | – | –
[1], x1 = 0.5025 | – | – | – | 1.45714 | 1.45586 | 1.45509 | – | – | –
[1], x1 = 0.6073 | – | – | – | 1.46429 | 1.46284 | 1.46136 | – | – | –
[1], x1 = 0.6982 | – | – | – | 1.46926 | 1.4678 | 1.46639 | – | – | –
[1], x1 = 0.8002 | – | – | – | 1.47391 | 1.47249 | 1.47111 | – | – | –
[1], x1 = 0.8992 | – | – | – | 1.47757 | 1.47623 | 1.47485 | – | – | –
[1], x1 = 0.9498 | – | – | – | 1.47901 | 1.47766 | 1.47622 | – | – | –
[1], x1 = 1 | – | – | – | 1.48077 | 1.47942 | 1.47806 | – | – | –
[2], x1 = 0.0501 | 860.2 | 856.4 | 852.2 | – | – | – | 1218 | 1203 | 1189
[2], x1 = 0.1015 | 916.9 | 913 | 909 | – | – | – | 1277 | 1262 | 1248
[2], x1 = 0.1961 | 993.7 | 990 | 986.2 | – | – | – | 1358 | 1343 | 1324
[2], x1 = 0.299 | 1052.2 | 1048.6 | 1044.9 | – | – | – | 1425 | 1412 | 1392
[2], x1 = 0.3914 | 1091.3 | 1087.8 | 1084.1 | – | – | – | 1479 | 1466 | 1446
[2], x1 = 0.5025 | 1127.3 | 1123.7 | 1120.1 | – | – | – | 1538 | 1525 | 1508
[2], x1 = 0.6073 | 1153.5 | 1150 | 1146.5 | – | – | – | 1576 | 1563 | 1553
[2], x1 = 0.6982 | 1172 | 1168.5 | 1165 | – | – | – | 1598 | 1584 | 1574
[2], x1 = 0.8002 | 1189.2 | 1185.6 | 1182.2 | – | – | – | 1626 | 1612 | 1602
[2], x1 = 0.8992 | 1203.1 | 1199.7 | 1196.3 | – | – | – | 1650 | 1636 | 1626
[2], x1 = 0.9498 | 1209.5 | 1206.1 | 1202.7 | – | – | – | 1659 | 1645 | 1633
[2], x1 = 1 | 1215.6 | 1212.2 | 1208.8 | – | – | – | 1671 | 1658 | 1645

CCO [ethanol] + CCCCCCCC[n+]1ccn(C)c1.F[P-](F)(F)(F)(F)F
x2 = 0
Details | mass density, 293.15 K [kg/m3] | mass density, 298.15 K [kg/m3] | mass density, 303.15 K [kg/m3] | refractive index, 293.15 K | refractive index, 298.15 K | refractive index, 303.15 K | speed of sound, 293.15 K [m/s] | speed of sound, 298.15 K [m/s] | speed of sound, 303.15 K [m/s]
[1] | – | – | – | 1.36138 | 1.35929 | 1.35725 | – | – | –
[2] | 789.3 | 785.1 | 780.7 | – | – | – | 1160 | 1143 | 1127
